Earlier results on two compounds are cited in US9192596B2, “Self-emulsifying pharmaceutical compositions of rhein or diacerein” (WOCKHARDT RESEARCH CENTRE, priority 2007, dated 2015).

SMILES strings stand for the structures. Counter-ions that a name gives are not always drawn.

The conditions of data set [1]: inherent pharmacokinetic property; rhein-glucuronide converted to rhein-9-anthrone in colon.
Test in data set [2]: not given
The source holds these as a separate data set.

Take `CC(=O)Oc1cccc2c1C(=O)c1c(OC(C)=O)cc(C(=O)O)cc1C2=O` [potassium salt of diacerein]: the solubility in water entry (EP 243,968) is on record as “water-soluble”.
Usually pKa stands for the pH at which an ionisable group is half protonated. For `CC(=O)Oc1cccc2c1C(=O)c1c(OC(C)=O)cc(C(=O)O)cc1C2=O` [diacerein, 4,5-bis(acetyloxy) 9,10-dihydro-4,5-dihydroxy-9,10-dioxo-2-anthracenecarboxylic acid], the “soft stool effect expected due to enterohepatic circulation” value in data set [1] is reported as 30-40%. Also, the solubility entry (water, alcohols, acetone, dichloromethane and chloroform) is reported as “practically insoluble”. The pKa in data set [2] is on record as 4.5. In addition, in data set [2] (acidic and alkaline conditions), the stability result is “instability under acidic and alkaline conditions”.
